Marks after values point to notes of the source that are not given here. Where a SMILES comes first, the peptide text is derived from it. Where no end group is shown, it is not given here. [ ]: non-standard residue; d: D form.

In experiment [1] the test system is peptide-forming enzyme (Mono S fraction enzyme). The experiment is described as follows: Enzyme substrate specificity (1)-(10), (13), (14): peptide production. The class given is biochemical, Empedobacter brevis. The arrangement: key to Produced peptide (oligopeptide): +: those for which production was confirmed but which were unable to be quantified due to the absence of a standard; a trace amount; key to Formed peptide: +: those peptides for which production was confirmed but which were unable to be quantified due to the absence of a standard; a trace amount. To be noted: pH 9.0, 25° C., 3 hours. The method, then:
Ester specificity was examined in the case of using L-amino acid ester for the carboxy component. 2 μl of the same enzyme fraction as used in Example 5 was added to 100 μl of 100 mM borate buffer (pH 9.0) containing the carboxy components indicated in Table 4 at 100 mM, 200 mM L-glutamine and 10 mM EDTA, and allowed to react at 25° C. for 2 hours. HCl represents hydrochloride in Table 4.
Peptide production was examined in the case of using L-alanine methyl ester for the carboxy component and using various L-amino acids for the amine component.
Peptide production was examined in the case of using various types of L-amino acid methyl esters for the carboxy component and using L-glutamine for the amine component. 2 μl of the same enzyme fraction as used in Example 5 was added to 100 μl of 100 mM borate buffer (pH 9.0) containing the L-amino acid methyl ester hydrochloride salts (AA-OMe.HCl) shown in Table 6 at 100 mM, 150 mM L-glutamine and 10 mM EDTA, and allowed to react at 25° C. for 3 hours. […] Furthermore, Tween-80 was added to the reaction system to a final concentration of 0.1% in the case of using L-Trp-OMe and L-Tyr-OMe.
Peptide production was examined in the case of using various L-amino acid methyl esters for the carboxy component and various L-amino acids for the amine component. 2 μl of the same enzyme fraction as used in Example 5 was added to 100 μl of 100 mM borate buffer (pH 9.0) containing the L-amino acid methyl ester hydrochloride salts (AA-OMe.HCl) shown in Table 7 at 100 mM, the L-amino acids shown in Table 7 at 150 mM and 10 mM EDTA, and allowed to react at 25° C. for 3 hours. The “tr” indicates a trace amount. Furthermore, Tween-80 was added to the reaction system to a final concentration of 0.1% in the case of using L-Trp-OMe.
Peptide production was examined in the case of using the L or D forms of various amino acid methyl esters for the carboxy component, and the L or D forms of various amino acids for the amine component. 2 μl of the same enzyme fraction as used in Example 5 was added to 100 μl of 100 mM borate buffer (pH 9.0) containing the various amino acid methyl ester hydrochloride salts (AA-OMe HCl) shown in Table 8 at 100 mM, the various amino acids shown in Table 8 at 150 mM and 10 mM EDTA, and allowed to react at 25° C. for 3 hours. The “tr” indicates a trace amount.
Peptide production was examined using various L-amino acid amides for the carboxy component, and various L-amino acids for the amine component. 2 μl of the same enzyme fraction as that used in Example 5 was added to 100 μl of 100 mM borate buffer (pH 9.0) containing the L-amino acid amide hydrochloride salt (M-NH2.HCl) shown in Table 9 at 100 mM, the L-amino acids shown in Table 9 at 150 mM and 10 mM EDTA, and allowed to react at 25° C. for 3 hours.
Peptide production was examined in the case of using various L-alanine methyl esters for the carboxy component and C-protected L-amino acids for the amine component. 2 μl of the same enzyme fraction as used in Example 5 was added to 100 μl of 100 mM borate buffer (pH 9.0) containing the L-alanine methyl ester hydrochloride hydrochloride salt (Ala-OMe.HCl) shown in Table 10 at 100 mM, the L-amino acid amide hydrochloride salts shown in Table 10 at 150 mM and 10 mM EDTA, and allowed to react at 25° C. for 3 hours.
Peptide production was examined in the case of using various amino acid methyl esters for the carboxy component and methylamine for the amine component. 2 μl of the same enzyme fraction as used in Example 5 was added to 100 μl of 100 mM borate buffer (pH 9.0) containing the amino acid methyl ester hydrochloride salt (M-OMe.HCl) shown in Table 11 at 100 mM, the methylamine shown in Table 11 at 150 mM and 10 mM EDTA, and allowed to react at 25° C. for 3 hours.
Peptide production was examined in the case of using […] for the carboxy component or β-amino acid for the amine component.

In experiment [2] the test system is enzyme derived from Sphingobacterium sp. strain FERM BP-8124 (SP-Sepharose HP fraction enzyme). Put plainly: Enzyme substrate specificity (11), (12): peptide production. To be noted: carboxy component 100 mM, 0.33 units enzyme, pH 9.0, 25° C., 1.5 hours; for Produced peptide (Table 15-1) / Produced peptide (Table 15-3): amine component 150 mM. It is filed as biochemical. From the text:
Substrate specificity was examined for enzyme derived from Sphingobacterium sp. strain FERM BP-8124 (Depositary institution: the independent administrative corporation, National Institute of Advanced Industrial Science and Technology, International Patent Organism Depositary, Address of depositary institution: Chuo Dai-6, 1-1 Higashi 1-Chome, Tsukuba-shi, Ibaraki-ken, Japan, International deposit date: […] The amounts of various peptides formed in this reaction are shown in Table 15. The “+” mark indicates those peptides for which production was confirmed but which were unable to be quantified due to the absence of a standard, while “tr” indicates a trace amount. Furthermore, Tween-80 was added to the reaction system to a final concentration of 0.1% in the case of using L-Tyr-OMe. In addition, hydrochloride salts were used for all carboxy components. Substrate specificity with respect to oligopeptide production was examined for enzyme derived from Sphingobacterium sp. strain FERM BP-8124 (Depositary institution: the independent administrative corporation, National Institute of Advanced Industrial Science and Technology, International Patent Organism Depositary, Address of depositary institution: Chuo Dai-6, 1-1 Higashi 1-Chome, Tsukuba-shi, Ibaraki-ken, Japan, International deposit date: […] The amounts of each oligopeptide formed in this reaction are shown in Table 16. Furthermore, hydrochloride salts were used for all the carboxy components.

[3] abbreviates: L or D amino acid methyl ester hydrochloride 100 mM, L or D amino acid 150 mM.
[4] abbreviates: L-amino acid methyl ester hydrochloride 100 mM, L-amino acid 150 mM.
[5] abbreviates: L-amino acid methyl ester hydrochloride 100 mM, 150 mM L-glutamine.
The mark [6] stands for this setting: β-amino acid ester or β-amino acid, carboxy component 100 mM, amine component 150 mM.
Setting [7] is: L-amino acid ester 100 mM, peptide (amine component) 150 mM.

Turning to `C[C@@H](N)C(=O)N[C@H](CO)C(=O)O` [D-Ala-D-Ser] (H-[dA]-[dS]-OH), the Formed peptide in experiment [1] (setting [3]) is given as 0.2 mM. For the same molecule, the “Produced peptide (Table 15-1)” value in experiment [2] is recorded as 5.5 mM.
Taken in the same sequence, the figures for `C[C@@H](N)C(=O)N[C@@H](CO)C(=O)O` [D-Ala-L-Ser] (H-[dA]-Ser-OH) were 20.3 mM and 24.1 mM.
Take `NCC(=O)N[C@@H](CCCN=C(N)N)C(=O)O` [Gly-L-Arg] (H-Gly-Arg-OH): in experiment [1] (setting [4]), the Formed peptide came to 25.5 mM. The “Produced peptide (Table 15-3)” value in experiment [2] was 17.9 mM.
On to `NCC(=O)N[C@@H](CCC(N)=O)C(=O)O` [Gly-L-Gln] (H-Gly-Gln-OH), for which, in experiment [1] (setting [5]), the Formed peptide came to 54.7 mM. Moreover, the “Produced peptide (Table 15-2)” value in experiment [2] (L-Gln 150 mM) is recorded as 61.1 mM.
For the molecule `NCCCC[C@H](NC(=O)CN)C(=O)O` [Gly-L-Lys] (H-Gly-Lys-OH), the Formed peptide in experiment [1] (setting [4]) worked out at 9.8 mM. Also, in experiment [2], the “Produced peptide (Table 15-3)” value is reported as 48.2 mM.
Turning to `NCC(=O)N[C@@H](Cc1ccccc1)C(=O)O` [Gly-L-Phe] (H-Gly-Phe-OH), the Formed peptide in experiment [1] (setting [4]) is on record as 44.0 mM. Besides, the “Produced peptide (oligopeptide)” value in experiment [1] (amount of enzyme 0.1 unit) is recorded as 17.3 mM. Moreover, the “Produced peptide (Table 15-3)” value in experiment [2] worked out at 20.0 mM.
In the case of `NCC(=O)N[C@@H](CO)C(=O)O` [Gly-L-Ser] (H-Gly-Ser-OH), the Formed peptide in experiment [1] (setting [4]) is recorded as 44.2 mM. Further, the “Produced peptide (Table 15-3)” value in experiment [2] is listed as 53.8 mM.
Turning to `CSCC[C@H](NC(=O)[C@@H](N)CCSC)C(=O)O` [L-Met-L-Met] (H-Met-Met-OH), the “Produced peptide (Table 15-3)” value in experiment [2] came out at 28.4 mM.
Turning to `CSCC[C@H](N)C(=O)N[C@@H](CO)C(=O)O` [L-Met-L-Ser] (H-Met-Ser-OH), the “Produced peptide (Table 15-3)” value in experiment [2] was determined as 25.3 mM.
For the molecule `C[C@@H](O)[C@H](N)C(=O)N[C@@H](CO)C(=O)O` [L-Thr-L-Ser] (H-Thr-Ser-OH), the Formed peptide in experiment [1] (setting [4]) came out at 58.2 mM.
In the case of `NC(=O)CCC(NC(=O)C(N)Cc1c[nH]c2ccccc12)C(=O)O` [L-Trp-L-Gln] (H-Trp-Gln-OH; configuration not given here), the Formed peptide entry in experiment [1] (setting [5]) was “+”.
`CSCC[C@H](NC(=O)[C@@H](N)Cc1c[nH]c2ccccc12)C(=O)O` [L-Trp-L-Met] (H-Trp-Met-OH) registered a Formed peptide in experiment [1] (setting [4]) of 4.1 mM.
On to `CC(C)[C@H](N)C(=O)N[C@H](CO)C(=O)O` [L-Val-D-Ser] (H-Val-[dS]-OH), for which the Formed peptide in experiment [1] (setting [3]) is given as 1.4 mM.
`C[C@@H](O)[C@H](N)C(=O)NCCC(=O)O` [Thr-β-Ala] returned a Formed peptide in experiment [1] (setting [6]) of 3.2 mM.
On the same count and under the same terms, to `C[C@@H](O)[C@H](N)C(=O)NC(CC(=O)O)c1ccccc1` (stereo partly drawn) [Thr-β-Phe] belongs 1.4 mM.
Take `NC(=O)CC[C@H](NC(=O)[C@@H](N)CCC(=O)O)C(=O)O` [α-L-Glu-L-Gln] (H-Glu-Gln-OH): the Formed peptide entry in experiment [1] (setting [5]) is reported as “+”.
Molecule `NCCC(=O)N[C@@H](CCC(N)=O)C(=O)O` [β-Ala-L-Gln] came in with a Formed peptide in experiment [1] (setting [6]) of 0.6 mM.
Molecule `NCCC(=O)NC(CO)C(=O)O` [β-Ala-L-Ser] returned a Formed peptide in experiment [1] (setting [6]) of 3.2 mM.
With `C[C@H](NC(=O)CCN)C(=O)O` [β-Ala-L-α-Ala], in experiment [1] (setting [6]), the Formed peptide entry is recorded as “tr”.
Molecule `NCCC(=O)NCCC(=O)O` [β-Ala-β-Ala] registered a Formed peptide in experiment [1] (setting [6]) of 0.2 mM.
For the molecule `NC(=O)CC[C@H](NC(=O)C[C@H](N)C(=O)O)C(=O)O` [β-L-Asp-L-Gln], the Formed peptide result in experiment [1] (setting [5]) is recorded as “tr”.
As to `NC(=O)CC[C@H](NC(=O)CC[C@H](N)C(=O)O)C(=O)O` [γ-L-Glu-L-Gln], in experiment [1] (setting [5]), the Formed peptide result was “+”.
In experiment [1] (setting [7]), Gly-Gly-L-Gln had a Produced peptide of 7.2 mM.
Take Gly-Gly-L-Tyr-L-Ala: the Produced peptide in experiment [1] (setting [7]) is 44.2 mM.
Gly-Phe-Met: the “Produced peptide (oligopeptide)” value in experiment [1] (amount of enzyme 1.0 unit) is 13.3 mM.
As to L-Ala-Gly-Gly-L-Phe-L-Met, the “Produced peptide (oligopeptide)” value in experiment [1] (amount of enzyme 0.2 unit) is on record as “+”.
Regarding L-Ala-Gly-L-Phe, in experiment [1] (amount of enzyme 0.1 unit), the “Produced peptide (oligopeptide)” value is “+”.
For the molecule L-Ala-L-Ala-L-Ala-L-Ala-L-Ala-L-Ala, the Produced peptide in experiment [1] (carboxy component 10 mM, amine component 15 mM (low solubility)) is recorded as 1.4* mM.
Consider L-Ala-L-Phe-L-Met, for which the “Produced peptide (oligopeptide)” value in experiment [1] (amount of enzyme 0.2 unit) is listed as “+”.
Regarding L-Tyr-Gly-Gly-L-Phe-L-Met, the “Produced peptide (oligopeptide)” value in experiment [1] (amount of enzyme 1.0 unit) was 2.7 mM.
Turning to [dA]-Gly-Phe, the “Produced peptide (oligopeptide)” value in experiment [1] (amount of enzyme 0.1 unit) is “Tr”.

The record behind these values is patent US20040204577A1, “Novel peptide-forming enzyme gene” (Ajinomoto Co., Inc., priority 2003, published 2004).
